The values below are quoted from earlier work in patent US10650914B2, “Fresh water acute criteria prediction method based on quantitative structure-activity relationship for metals” (Chinese Research Academy of Environmental Sciences, priority 2015, dated 2020).

The structures appear in SMILES notation.

One series has as its system Carp. The settings on record: training set.
Another series has as its system Daphnia magna. Particulars: for Endpoint Index: fatality rate, 48 hours, 13° C., pH 7.6, total hardness 240 mg/L; for Observed value (log-EC50): training set of leave-one-out internal validation.

With `[Cd]` [Cadmium], the “Observed value (log-LC50)” value in the series on Carp is 0.331.

As to `[Cr]` [Chromium], the “Observed value (log-LC50)” value in the series on Carp is 2.439.

Regarding `[Cu]` [Copper], in the series on Daphnia magna, the “Endpoint Index” value was 0.014 and the “Observed value (log-EC50)” value is reported as −0.6601. For the same compound, the “Observed value (log-LC50)” value in the series with Carp is listed as 1.097.

As to `[Fe]` [Iron], in the series on Daphnia magna, the “Endpoint Index” value is given as 2.92 and the “Observed value (log-EC50)” value is recorded as 1.7172.

As for `[Pb]` [Lead], in the series with Daphnia magna, the “Endpoint Index” value was 8.69 and the “Observed value (log-EC50)” value is on record as 1.6231.

Consider `[Ni]` [Nickel], for which, in the series on Daphnia magna, the “Endpoint Index” value is on record as 5.7 and the “Observed value (log-EC50)” value is on record as 1.9850. The “Observed value (log-LC50)” value in the series on Carp is reported as 2.246.

On to `[Ag]` [Silver], for which, in the series with Daphnia magna, the “Endpoint Index” value was 0.014 and the “Observed value (log-EC50)” value is −0.8873.

For `[Zn]` [Zinc], in the series with Daphnia magna, the “Endpoint Index” value is 0.13 and the “Observed value (log-EC50)” value is reported as 0.3010. In addition, in the series with Carp, the “Observed value (log-LC50)” value is 2.079.
